The text below walks through data of patent US20190289849A1, “Novel Plant Growth Regulators and Methods of Using Same” (Duke University, priority 2016, published 2019).

Common to all, as to type: in vivo
In assay [1] the test system is Azucena (tropical japonica) rice. The experiment in a line: Rice root system architecture and shoot weight. Here is the method:
Azucena (tropical japonica) seeds were dehulled and germinated in the dark for 3 days at 30° C. Germinated seeds were transferred to Yoshida's nutrient solution, solidified with 0.25% gelzan (Caisson Laboratories, Inc.), in 2 L glass cylinders, as described previously (Topp, C. N., et al., Proceedings of the National Academy of Sciences of the United States of America, 2013. 110(18): p. […]-[…].). Rice roots were imaged at 12 das. To measure lateral root capacity, the primary root apical meristem of each seedling was sterilely excised at 7 days. The plants were given 3 days to grow out lateral roots, and then each emerged lateral root was counted using a dissection microscope, as described previously (Van Norman et al., Proceedings of the National Academy of Sciences of the United States of America, 2014. 111(13): p. […]-[…]). Luciferase activity was measured as previously described, using exposure times of 7 min (Moreno-Risueno, M. A., et al., Science, 2010. 329(5997): p. 1306-1311). WOX5^+ and EN7^+ primordia were counted using a stereo zoom microscope (Zeiss). Lateral and primary root lengths for Arabidopsis thaliana and tomato were measured using ImageJ (National Institutes of Health) software. 3D images of rice root architecture were captured using a 360° revolving platform and these images were analyzed using GiA Roots (www.giaroots.org), as described previously by Topp (2013). Primary root lengths were determined by dissecting the root and measuring the length with a ruler. Shoot mass was measured after removing the shoots and drying them for 10 days at 60° C.

The test system of a further assay is Arabidopsis. As to the kind of experiment: High concentration (10 mM) apocarotenoid effects on plant growth. As for the experimental part: FIG. 10 illustrates the effect of high doses of β-cyclocitral and DHAD on root growth. A) The effect of adding small volumes of 10 mM apocarotenoids daily to either the shoots, root tip, or the middle of the root. B) A confocal image of a healthy root stained with propidium iodide, which marks dead cells. C) A root treated with 10 mM β-cyclocitral applied to the tip of the root.
FIG. 11 illustrates the effect of 10 mM apocarotenoids on plant development. A) The percent change in lateral root capacity, normalized to control plants. Abbreviations: dihydro-β-ionone (DHβI), dimethyl-β-cyclocitral (DMβC). β-cyclocitral (β-cyc), pseudoionone (PI), and dihydroactinidiolide (DHAD). B) Confocal image of a control root stained with propidium iodide. C) Image of a root treated with safranal. D) Images of leaves form a control plant. E) Images of leaves from a plant treated with pseudoionone.
At high concentrations (10 mM) of β-cyclocitral or DHAD, root length, shoot mass, and lateral root growth were inhibited. […] In one embodiment, safranal may be detrimental to Arabidopsis at concentrations as low as 500 μM.

In assay [2] the test system is Arabidopsis thaliana. As to the kind of experiment: Lateral root capacity (emerged lateral roots after removal of the primary root apical meristem).
A further assay has as its system Heinz tomatoes. The experiment in a line: Tomato primary and lateral root growth. To be noted: tomato. Here is the method:
Heinz tomatoes were used for all tomato experiments. Seeds were sterilized using 40% liquid bleach for 30 min, then plated on 1% MS media in 120×120×17 mm square petri dishes. Seeds were kept in the dark at room temperature for 3 days, and then exposed to 100-130 μmol/(m^2s^1) illumination and grown vertically under long-day conditions at 22° C. For treating tomatoes, β-cyclocitral, norflurazone, and D15 were added directly to the media, at the concentrations described in the figures. Norflurazone was diluted to a final concentration of 1 μM in media. Tomato phenotypes were analyzed at 6 das. To measure lateral root capacity, the primary root apical meristem of each seedling was sterilely excised at 7 days. The plants were given 3 days to grow out lateral roots, and then each emerged lateral root was counted using a dissection microscope, as described previously (Van Norman et al., Proceedings of the National Academy of Sciences of the United States of America, 2014. 111(13): p. […]-[…]). Luciferase activity was measured as previously described, using exposure times of 7 min (Moreno-Risueno, M. A., et al., Science, 2010. 329(5997): p. 1306-1311). WOX5^+ and EN7^+ primordia were counted using a stereo zoom microscope (Zeiss). Lateral and primary root lengths for Arabidopsis thaliana and tomato were measured using ImageJ (National Institutes of Health) software. 3D images of rice root architecture were captured using a 360° revolving platform and these images were analyzed using GiA Roots (www.giaroots.org), as described previously by Topp (2013). Primary root lengths were determined by dissecting the root and measuring the length with a ruler. Shoot mass was measured after removing the shoots and drying them for 10 days at 60° C.

In assay [3] the test system is Arabidopsis thaliana. As to the kind of experiment: Primary and lateral root growth on exposure to volatile β-cyclocitral.

Consider `CC1=C(C=O)C(C)(C)CCC1` [β-cyclocitral], for which, in assay [1] (Azucena rice), the crown root growth entry is “dramatically increasing” and the primary root growth entry was “dramatically increasing”. Besides, the “root system depth and compactness vs control plants” value in assay [1] (Azucena rice, 10 μM β-cyclocitral per FIG. 8) is “deeper and more compact”. In assay [1] (rice), the lateral root length entry is listed as “decreased” and the shoot growth entry was “remained unchanged”. Further, the dry shoot weight entry in assay [1] (rice plants) is “does not significantly change”. In the assay with Arabidopsis (10 mM), the lateral root growth result is “inhibited”, the root length entry is on record as “inhibited” and the shoot mass result is listed as “inhibited”. The root growth entry in the assay on Arabidopsis (10 mM applied only to the root tip) is given as “sufficient to reduce root growth”. Besides, the “lateral root capacity / branching in combination with D15 (screen)” value in the assay with Arabidopsis thaliana [2] (30 μM D15 plus apocarotenoid, normalized to D15 treatment) is on record as “increase lateral root branching”. Besides, the “rescue of D15 inhibition of lateral root branching” value in the assay on Arabidopsis thaliana [2] (D15-treated plants, apocarotenoid concentration varied for maximum rescue) was “fully rescue”. Also, the “rescue of D15 primary root inhibition” value in the assay with Heinz tomatoes (D15 plus exogenous β-cyclocitral) is on record as “could not be rescued”. Further, the lateral root length entry in the assay on Heinz tomatoes (dose-dependent) is “significant increase”. Besides, in the assay with Heinz tomatoes (norflurazone plus β-cyclocitral), the “rescue of primary root growth in norflurazone-treated plants” value is recorded as “fully rescued”. Further, the primary root length result in the assay on Heinz tomatoes (uninhibited plants) is “significantly increased”. The “primary and lateral root emergence” value in the assay with Arabidopsis thaliana [3] (exogenous volatile application, in the presence and absence of D15) is on record as “increased”. For the same molecule, in the assay with Arabidopsis thaliana [3] (with or without co-treatment of D15), the lateral root length result is listed as “increases”.
